This note sets out measurements from patent US5770604A, “Aconitine compound and an antipyretic/analgesic/anti-inflammatory agent” (priority 1994, dated 1998).

Common to all, as to assay type: in vivo, mice (Std:ddY, male)
The subject of assay [1] is nociceptive response (licking). Nature of the assay: Analgesic activity by the hot-plate method. Conditions: mouse, 52° C. plate, solution 10 mg/10 ml, mean ± standard error. How it is done: Measurement of Analgesic Activity by the Hot-Plate Method
Std:ddY Strain male mice (20-25 g) were fasted for one day before the experiment, and were used. After compounds shown in Table 1 were formed to the tartaric acid salts, these compounds were dissolved in 0.9% physiologocal saline solution at the rate of 10 mg/10 ml, respectively and these solution were used as test compound solution. In a control, 0.9% physiological saline solution was used. Mice were placed on a cyrindric hot plate (diameter: 22 cm, height: 11 cm) made of copper which was fixed in a water bath adjusted to 52° C. so that each animal's four paws came into contact with the plate and the time taken to show the nociceptive response (licking) as an index of pain was measured. Mice showing response latency above 25 seconds were excluded from the experiment. To prevent a burn damage of mouse tissue by heating, cutoff time of 50 seconds was defined. The results were described as an inhibition rate (%) obtained from the following equation.
Inhibition rate (%)=(A-B)×100/(50-B)
A: Response latency (seconds) after the administration of test compound solution
B: Response latency (seconds) before the administration of test compound solution
On the technique in general: Hot-plate and tail-flick tests time the reaction to a heat stimulus.

In assay [2] the test system is carrageenin-induced paw edema. Nature of the assay: Antiinflammatory activity by the carrageenin-induced hind paw edema. Conditions: mouse, 30 mg/kg p.o., mean ± standard error, n = 6. As for the experimental part:
Measurement of Antiinflammatory Activity by the Carrageenin-Induced Hind Paw Edema
Std:ddY Strain male mice (20-25 g) were fasted for one day before the experiment, and were used. After test compounds shown in Table 1 was formed to a salt with tartaric acid, this salt was dissolved in sterilized and distilled water at the rate of 30 mg/10 ml to give the test compound solution. As a control, sterilized and distilled water was used. One hour after the oral administration of test compound solutions, 25 μl of λ-carrageenin suspended in 0.9% physiological saline solution (0.5 mg/25 μl) was injected s.c. under the plantar surface of the right hind paw of a mouse and 25 μl of 0.9% physiological saline solution was injected s.c. under the plantar surface of the left hind paw of the same mouse. Three hours and five hours after carrageenin injection, the […] of the paw was measured with a dial gauge calliper. To the control group, One hour after the oral administration of sterilized and distilled water at the rate of 10 ml/kg, 25 μl of λ-carrageenin (0.5 mg/25 μl) suspended in 0.9% physiological saline solution was injected s.c. under the plantar surface of the right hind paw of a mouse and 25 μl of 0.9% physiological saline solution was injected s.c. under the plantar surface of the left hind paw of the same mouse and the later operation was done in the same manner as in the test compound dosing group mentioned above. The results were described as a swelling rate (%) obtained from the following equation.
Swelling rate (%)=(R-L)×100/L
R: the thickness of the right hind paw
L: the thickness of the left hind paw
(The carrageenan paw model is a standard test of acute inflammation.)

The test system of assay [3] is pain threshold (tail-pressure). Nature of the assay: Analgesic activity by the tail-pressure method (s.c.). Conditions: mouse, 10 mg/10 ml at 10 ml/kg s.c., 1 hour after administration, mean ± standard error. As for the experimental part: (1) Measurement of Analgesic Activity by the Tail-Pressure Method
Std:ddY Strain male mice (20-25 g) were fasted for one day before the experiment, and were used. After test compounds shown in Table 1 was formed to a salt with tartaric acid, this salt was dissolved in 0.9% physiological saline solutions at the rate of 10 mg/10 ml to give the test compoun d solution . As a control, 0.9% physiological saline solution was used. A tail-pressure apparatus was used in this experiments. Before the administration of test compounds, the pain threshold was measured twice at intervals of 30 minutes and those mice indicating a pain threshold of 50 to 100 mmHg were selected and used. The pain threshold of each mouse was measured at 1 hour after test compound solution mentioned above was administered at 10 ml/kg, s.c. 0.9% Physiological saline solution as a control was administered at 10 ml/kg, s.c . The results were described as an inhibition rate (%) obtained from the following equation. Cutoff level of pressure was defined to be 230 mmHg for the prevention of the damage of mouse tail.
Inhibition rate (%)=(A-B)×100/(C-B)
A: Pain threshold (mmHg) after the administration of test compound solution
B: Pain threshold (mmHg) before the administration of test compound solution
C: Cutoff pressure (230 mmHg)

Assay [4] has as its system pain threshold (tail-pressure). Nature of the assay: Tail-pressure method, experiment combined with morphine antagonist (levallorphan). Conditions: mean ± standard error. How it is done: (4) Experiment Combined with Morphine Antagonist
Std:ddY Strain male mice (20-25 g) were fasted for one day before the experiment, and were used. In this experiment, the tartaric acid salt of a compound of number (2) in Table 1, morphine hydrochloride and levallorphan hydrochloride of an opioid antagonist were used. The tartaric acid salt of a compound of number (2) was dissolved in 0.9% physiological saline solution at the rate of 10 mg/2 ml. Morphine hydrochloride was dissolved in 0.9% physiological saline solution at the rate of 10 mg/2 ml. Levallorphan hydrochloride was dissolved in 0.9% physiological saline solution at the rate of 1 mg/10 ml. As a control, 0.9% physiological saline solution was used. A tail-pressure apparatus was used in this experiments. Before the administration of levallorphan hydrochloride, the pain threshold was measured twice at intervals of 30 minutes and those mice indicating a pain threshold of 50 to 100 mmHg were selected and used. Levallorphan hydrochloride solution mentioned above was administered s.c. at the rate of 10 ml/kg and, 30 minutes later, the above tartaric acid salt solution compound of number (2) or morphine hydrochloride solution was injected i.v. at the rate of 2 ml/kg, respectively. Each pain threshold was measured 10, 20 and 30 minutes after an intravenous injection. In control group, 0.9% physiological saline solution was injected i.v. at the rate of 2 ml/kg at 30 minutes after s.c. administration at 10 ml/kg of 0.9% physiological saline solution. In the single administration group of levallorphan hydrochloride, levallorphan hydrochloride solution mentioned above was administered s.c. at the rate of 10 ml/kg and, 30 minutes later, 0.9% physiological saline solution was injected i.v. at the rate of 2 ml/kg. The results were described in Table 10 as an inhibition rate (%) indicating in the preceding paragraph (1).

For assay [5], the system named is pain threshold (tail-pressure). Nature of the assay: Tail-pressure method, experiment combined with morphine administration. The settings on record: mean ± standard error, n = 7. How it is done:
(3) Experiment Combined with Morphine Administration
Std:ddY Strain male mice (20-25 g) were fasted for one day before the experiment, and were used. In this experiment, the tartaric acid salt of a compound of number (2) in Table 1 and morphine hydrochloride were used. The tartaric acid salt of a compound of number (2) was dissolved in 0.9% physiological saline solution at the rate of 7 mg/10 ml. Morphine hydrochloride was dissolved in 0.9% physiological saline solution at the rates of 5 mg/2 ml, 3 mg/2 ml and 1 mg/2 ml. As a control, 0.9% phisiological saline solution was used. A tail-pressure apparatus was used in this experiments. Before the administration of test compounds, the pain threshold was measured twice at intervals of 30 minutes and those mice indicating a pain threshold of 50 to 100 mmHg were selected and used. Mice was divided in the following four groups, (i) control group, (ii) the administration group of the tartaric acid salt of a compound of number (2), (iii) the administration group of morphine hydrochloride and (iv) the combined administration group with the tartaric acid salt of a compound of number (2) and morphine hydrochloride. In the administration group of the tartaric acid salt of a compound of number (2), 0.9% physiological saline solution of this tartaric acid salt mentioned above was injected s.c. at the rate of 10 ml/kg and, 30 minutes later, 0.9% physiological saline solution was injected i.v. at the rate of 2 ml/kg. In the administration group of morphine hydrochloride, 0.9% physiological saline solution was injected s.c. at the rate of 10 ml/kg and, 30 minutes later, the above physiological saline solution of morphine hydrochloride was injected i.v. at the rate of 2 ml/kg. In the combined administration group with the tartaric acid salt of a compound of number (2) and morphine hydrochloride,the above physiological saline solution of the tartaric acid salt of a compound of number (2) was injected s.c. at the rate of 10 ml/kg and, 30 minutes later, the above physiological saline solution of morphine hydrochloride was injected i.v. at the rate of 2 ml/kg. In control group, 0.9% physiological saline solution was injected s.c. at the rate of 10 ml/kg and, 30 minutes later, 0.9% physiological saline solution was injected i.v. at the rate of 2 ml/kg. Each pain threshold was measured 10, 20 and 30 minutes after an intravenous injection. The results were described in Table 9 as an inhibition rate (%) indicating in the preceding paragraph (1).

Assay [6] has as its system pain threshold (tail-pressure). Nature of the assay: Tail-pressure method, comparison with morphine (i.v.). The settings on record: mean ± standard error. As for the experimental part:
(2) Comparison with Morphine
Std:ddY Strain male mice (20-25 g) were fasted for one day before the experiment, and were used. In this experiment, the tartaric acid salt of a compound of number (2) in Table 1 and morphine hydrochloride as a possitive control were used. This tartaric acid salt was dissolved in 0.9% physiological saline solution at the rates of 5 mg/2 ml, 3 mg/2 ml and 1 mg/2 ml. Morphine hydrochloride was dissolved in 0.9% physiological saline solution at the rates of 5 mg/2 ml, 3 mg/2 ml and 1 mg/2 ml. As a negative control, 0.9% phisiological saline solution was used. A tail-pressure apparatus was used in this experiments. Before the administration of test compounds, the pain threshold was measured twice at intervals of 30 minutes and those mice indicating a pain threshold of 50 to 100 mmHg were selected and used. The pain threshold of each mouse was measured at 10, 20 and 30 minutes after test compound solution mentioned above was administered at 2 ml/kg, i.v. 0.9% Physiological saline solution as a control was administered i.v. The results were described as an inhibition rate (%) indicating in the preceding paragraph (1).

In the case of `CCN1CC2(COC)C(OC(C)=O)CC(OC)C34C5CC6(O)C(OC)C(OC(C)=O)C(O)(C5C6OC(=O)c5ccc(Cl)cc5)C(C(OC)C23)C14` (stereo not shown) [(4), 3,15-di-O-acetyl-14-O-p-chlorobenzoylaconine], in assay [1], the “Inhibition rate (hot-plate method)” value is reported as 35 ± 9%. The results for the Swelling rate in assay [2] (3 hour) and in assay [2] (5 hour) were 50 ± 7% and 55 ± 9%, respectively. Moreover, the “Inhibition rate (tail-pressure method)” value in assay [3] amounted to 29 ± 8%.
With `C=CCN1CC[C@]23CCCC[C@H]2[C@H]1Cc1ccc(O)cc13` [levallorphan], the Inhibition rate in assay [4] (levallorphan 1 mg/kg s.c. alone, 10 min after i.v. injection) is on record as 3 ± 4%; in assay [4] (levallorphan 1 mg/kg s.c. alone, 20 min after i.v. injection) it was -3 ± 4%; in assay [4] (levallorphan 1 mg/kg s.c. alone, 30 min after i.v. injection), 1 ± 3%.
In the case of `CN1CC[C@]23c4c5ccc(O)c4O[C@H]2[C@@H](O)C=C[C@H]3[C@H]1C5` [morphine, reference compound], the Inhibition rate in assay [5] (morphine 1 mg/kg i.v. alone, 10 min) is given as 2 ± 2%; in assay [5] (morphine 1 mg/kg i.v. alone, 20 min), 3 ± 4%; in assay [5] (morphine 1 mg/kg i.v. alone, 30 min), 1 ± 2%; in assay [5] (morphine 3 mg/kg i.v. alone, 10 min) it was 11 ± 8%; in assay [5] (morphine 3 mg/kg i.v. alone, 20 min), 15 ± 9%; in assay [5] (morphine 3 mg/kg i.v. alone, 30 min), 10 ± 6%. Moreover, the Inhibition rate turned out to be 36 ± 10% in assay [5] (morphine 5 mg/kg i.v. alone, 10 min); 32 ± 11% in assay [5] (morphine 5 mg/kg i.v. alone, 20 min); 26 ± 8% in assay [5] (morphine 5 mg/kg i.v. alone, 30 min); 10 ± 1% in assay [4] (10 mg/kg i.v., with levallorphan 1 mg/kg s.c. 30 minutes before, 10 min); 10 ± 7% in assay [4] (10 mg/kg i.v., with levallorphan 1 mg/kg s.c. 30 minutes before, 20 min); 20 ± 6% in assay [4] (10 mg/kg i.v., with levallorphan 1 mg/kg s.c. 30 minutes before, 30 min). The Inhibition rate in assay [4] (10 mg/kg i.v., without levallorphan, 10 min) was determined as 70 ± 13%; in assay [4] (10 mg/kg i.v., without levallorphan, 20 min) it was 73 ± 9%; in assay [4] (10 mg/kg i.v., without levallorphan, 30 min), 65 ± 12%; in assay [6] (1 mg/kg i.v., 10 minutes), 1 ± 2%; in assay [6] (1 mg/kg i.v., 20 minutes), 2 ± 2%; in assay [6] (1 mg/kg i.v., 30 minutes), 2 ± 1%. Also, the Inhibition rate in assay [6] (3 mg/kg i.v., 10 minutes) was determined as 13 ± 7%; in assay [6] (3 mg/kg i.v., 20 minutes) it was 18 ± 10%; in assay [6] (3 mg/kg i.v., 30 minutes), 12 ± 8%; in assay [6] (5 mg/kg i.v., 10 minutes), 38 ± 12%; in assay [6] (5 mg/kg i.v., 20 minutes), 30 ± 10%; in assay [6] (5 mg/kg i.v., 30 minutes), 29 ± 12%.
